US20250281572A1, “COMPOSITIONS AND METHODS FOR TREATING AND PREVENTING METABOLIC DISORDERS” (The Johns Hopkins University, priority 2022, published 2025)
No end group written: not given here.

Legend:
[1] = Viable MCF-7 breast cancer cells; format: cell-based; details: 500 μM; read-out: reduction of viable MCF-7 cancer cells
[2] = system: human colon cancer Caco2 cells; assay: Growth of colon cancer Caco2 cells; format: cell-based; details: FIG. 25b
HFD-fed mice = assay: Intraperitoneal treatment of HFD-fed mice; format: in vivo, mouse; details: intraperitoneal 10 nMole/g/day for 5 days, then 15 nMole/g/day for another 5 days
[3] = system: human primary hepatocytes
primary hepatocytes = details: 10 μM, 16 h, versus control peptide TAT
Experimental: Primary hepatocytes prepared from elderly mice (78 weeks of age) were treated with 10 μM of control peptide TAT or Pa496m for 16 h.

[4] = molecular target: AMPKα1 (AMP-activated protein kinase catalytic subunit alpha 1), FLAG-tagged, wild type (UniProt Q13131)
Target sequence in this assay (Q13131 whole entry, looked up, tested part not stated): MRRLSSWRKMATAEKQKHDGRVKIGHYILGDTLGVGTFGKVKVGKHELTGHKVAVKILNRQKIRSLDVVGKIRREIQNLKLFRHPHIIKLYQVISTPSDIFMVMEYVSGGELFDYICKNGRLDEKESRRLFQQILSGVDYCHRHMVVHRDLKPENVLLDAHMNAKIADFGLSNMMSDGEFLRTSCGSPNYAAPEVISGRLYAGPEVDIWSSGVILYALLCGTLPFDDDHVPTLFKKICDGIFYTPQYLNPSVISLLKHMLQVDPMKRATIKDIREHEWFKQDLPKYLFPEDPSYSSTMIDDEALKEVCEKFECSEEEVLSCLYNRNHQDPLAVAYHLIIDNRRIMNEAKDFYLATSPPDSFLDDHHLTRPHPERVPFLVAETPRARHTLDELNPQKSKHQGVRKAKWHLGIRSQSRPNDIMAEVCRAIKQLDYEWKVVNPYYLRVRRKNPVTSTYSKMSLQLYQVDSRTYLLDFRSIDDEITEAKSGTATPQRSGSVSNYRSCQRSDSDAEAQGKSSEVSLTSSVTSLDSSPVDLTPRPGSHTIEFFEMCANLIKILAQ

[5] = system: T1, peptide a1m (TPQRSGSISNYRSCQR)
T1 sequence: TPQRSGSISNYRSCQR

[6] = molecular target: AMPKα2 (AMP-activated protein kinase catalytic subunit alpha 2) (UniProt P54646)
AMPKα2 (AMP-activated protein kinase catalytic subunit alpha 2), sequence (P54646 whole entry, looked up, tested part not stated): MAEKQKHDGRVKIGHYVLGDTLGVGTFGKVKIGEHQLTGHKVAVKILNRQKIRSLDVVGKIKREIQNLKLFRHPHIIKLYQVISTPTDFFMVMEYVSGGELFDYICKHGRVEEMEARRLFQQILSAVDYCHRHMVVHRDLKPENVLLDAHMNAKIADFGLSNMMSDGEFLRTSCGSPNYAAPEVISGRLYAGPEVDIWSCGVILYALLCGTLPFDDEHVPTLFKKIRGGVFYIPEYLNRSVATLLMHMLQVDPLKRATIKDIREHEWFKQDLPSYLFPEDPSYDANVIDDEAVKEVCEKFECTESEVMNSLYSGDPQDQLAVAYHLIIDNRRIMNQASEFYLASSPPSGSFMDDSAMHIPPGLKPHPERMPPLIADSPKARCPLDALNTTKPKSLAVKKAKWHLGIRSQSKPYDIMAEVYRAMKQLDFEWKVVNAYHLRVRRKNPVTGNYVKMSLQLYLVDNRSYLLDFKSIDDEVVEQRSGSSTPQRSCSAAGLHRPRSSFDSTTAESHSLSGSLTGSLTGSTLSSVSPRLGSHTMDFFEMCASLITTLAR

[7] = molecular target: AMPKα1 (AMP-activated protein kinase catalytic subunit alpha 1), FLAG-tagged, wild type (UniProt Q13131); assay: cell-based or functional assay
Target sequence in this assay (Q13131 whole entry): as the sequence (Q13131 whole entry, looked up, tested part not stated) above

[8] = molecular target: AMPKα1 phosphorylated at S496 (UniProt Q13131)
AMPKα1 phosphorylated at S496, sequence (Q13131 whole entry, looked up): as the sequence (Q13131 whole entry, looked up, tested part not stated) above

[9] = molecular target: AMPKα2 phosphorylated at S491 (UniProt P54646)
AMPKα2 phosphorylated at S491, sequence (P54646 whole entry, looked up): as the sequence (P54646 whole entry, looked up, tested part not stated) above

AMPKα1 [10] = assay: In vitro phosphorylation assay of AMPKα1 at S496 by PKA or AKT; format: biochemical; details: in vitro assays
Experimental: (§1) In vitro phosphorylation assays. Purified AMPKα1 protein was incubated with 1 μg of PKA catalytic subunit (Millipore) or 0.54 ug of AKT1 (abcam), 1× kinase buffer (Cell signaling) and 0.2 mM ATP at room temperature for the indicated time. To test the phosphorylation of PKA-mediated AMPK phosphorylation at S496/491 on a subunit phosphorylation at T172, AMPKα subunits were phosphorylated at S496/491 by PKA at 37° C. for 1 h, followed by the addition of 25 ng LKB1-STRAD-MO25 (Millipore), then incubated at room temperature for 30 min.

AMPKα2 = assay: In vitro phosphorylation assay of AMPKα2 at S491 by PKA; format: biochemical
Experimental: as §1

AMPKα1 [11] = assay: AMPK phosphorylation in cAMP-treated Hepa1-6 cells; format: cell-based; details: Hepa1-6 cells with cAMP (0.2 mM)

AMPKβ1, FLAG-tagged, sequence (Q9R078 2-270): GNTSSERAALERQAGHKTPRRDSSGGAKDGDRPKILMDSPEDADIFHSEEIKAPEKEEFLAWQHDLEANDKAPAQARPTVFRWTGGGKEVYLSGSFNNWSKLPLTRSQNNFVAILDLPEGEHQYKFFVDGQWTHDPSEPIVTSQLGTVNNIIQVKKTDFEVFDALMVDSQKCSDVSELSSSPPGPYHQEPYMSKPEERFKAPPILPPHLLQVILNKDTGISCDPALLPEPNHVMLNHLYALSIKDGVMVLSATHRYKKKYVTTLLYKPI
AMPKγ1, FLAG-tagged, sequence (O54950 whole entry): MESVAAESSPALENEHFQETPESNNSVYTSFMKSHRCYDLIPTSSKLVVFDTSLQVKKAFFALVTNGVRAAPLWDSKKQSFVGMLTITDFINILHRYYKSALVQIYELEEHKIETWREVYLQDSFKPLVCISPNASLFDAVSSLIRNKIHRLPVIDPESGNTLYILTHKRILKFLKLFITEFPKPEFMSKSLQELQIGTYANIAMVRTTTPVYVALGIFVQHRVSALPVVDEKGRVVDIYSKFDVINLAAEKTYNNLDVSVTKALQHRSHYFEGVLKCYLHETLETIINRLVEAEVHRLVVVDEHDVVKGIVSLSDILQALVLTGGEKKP

YGRKKRRQRRRTPQRSCSAAGLHR [Pa2-491]
cytotoxicity [1]: > 90% | growth of colon carcinoma Caco2 cells [2]: could inhibit

YGRKKRRQRRRTPQRSGSVSNYRSCQR [Pa496h]
injury to the liver (HFD-fed mice): without causing injury to the liver | cytotoxicity [1]: > 90% | growth of colon carcinoma Caco2 cells [2]: could inhibit | decrease of hepatocytes' viability [3]: 19.8% | viability of human primary hepatocytes ([3]; 100 μM): did not significantly affected

YGRKKRRQRRRTPQRSGSISNYRSCQR [Pa496m]
cytotoxicity [1]: > 90% | fat content in hepatocytes (primary hepatocytes): significantly decreased

AKT1 (abcam)
in vitro phosphorylation of AMPKα1 at S496 [4]: PKA- or AKT-mediated phosphorylation of AMPKα1 at S496 in in vitro assays | in vitro phosphorylation of AMPKα1 at S496 by AKT [5]: this peptide could effectively antagonize PKA- or AKT-mediated phosphorylation of AMPKα1 at S496 in in vitro assays

PKA catalytic subunit (Millipore)
in vitro phosphorylation of AMPKα1 at S496 [4]: PKA can directly phosphorylate AMPKα1 at S496 | in vitro phosphorylation of AMPKα2 at S491 [6]: PKA can directly phosphorylate AMPKα1 at S496 (FIGS. 3a, b) and AMPKα2 at S491 (FIG. 3c) | in vitro phosphorylation of AMPKα1 at S496 by PKA [5]: this peptide could effectively antagonize PKA- or AKT-mediated phosphorylation of AMPKα1 at S496 in in vitro assays | in vitro phosphorylation of AMPKα2 at S491 by PKA [5]: this targeting-peptide a1m could antagonize the phosphorylation of AMPKα2 at S491 by PKA as well

AMPKβ1, FLAG-tagged
AMPK enzymatic activity (% of enzymatic activity lost) [7]: 80

LKB1-STRAD-MO25 (Millipore)
in vitro phosphorylation of AMPKα at T172 [8]: the phosphorylation at these sites decreased the phosphorylation of AMPKα at T172 by upstream kinase LKB1 | in vitro phosphorylation of AMPKα at T172 [9]: the phosphorylation at these sites decreased the phosphorylation of AMPKα at T172 by upstream kinase LKB1

TPQRSGSISNYRSCQR [a1m, corresponds to mouse AMPKα1 from 490-505 a.a]
PKA- or AKT-mediated phosphorylation of AMPKα1 at S496 (AMPKα1 [10]): effectively antagonize | phosphorylation of AMPKα2 at S491 by PKA (AMPKα2): could antagonize

AMPKγ1, FLAG-tagged
AMPK enzymatic activity (% of enzymatic activity lost) [7]: 80

O=S(=O)(NCCNC/C=C/c1ccc(Br)cc1)c1cccc2cnccc12 [Peptide H89]
phosphorylation of AMPKαT172 and MFF (AMPKα1 [11]): reversed the negative effect of cAMP
